Species: Rattus norvegicus
Experiment: DrugMatrix - Regimen: Daily Repeat
Format: toxicity, organism-based, Sprague-Dawley
Parameters: regimen Daily Repeat, gender Male, age 6-8 weeks
Details: in vivo, po, route oral GAVAGE, […]; for ABSOLUTE BASOPHIL / ABSOLUTE EOSINOPHIL / ABSOLUTE LYMPHOCYTE / ABSOLUTE MONOCYTE / ABSOLUTE SEGMENTED NEUTROPHIL / BASOPHIL / EOSINOPHIL / ERYTHROCYTE COUNT / HEMATOCRIT / HEMOGLOBIN / LEUKOCYTE COUNT / LYMPHOCYTE / MEAN CORPUSCULAR HEMOGLOBIN / MEAN CORPUSCULAR HEMOGLOBIN CONCENTRATION / MEAN CORPUSCULAR VOLUME / MONOCYTE / NEUTROPHIL / NUCLEATED RED BLOOD CELLS / PLATELET COUNT: tissue Blood; for ALANINE AMINOTRANSFERASE / ALBUMIN / ALKALINE PHOSPHATASE / ASPARTATE AMINOTRANSFERASE / BLOOD UREA NITROGEN / CARBON DIOXIDE / CHLORIDE / CHOLESTEROL / CREATINE PHOSPHOKINASE / CREATININE / GLUCOSE / LACTATE DEHYDROGENASE / LIPASE / PHOSPHORUS / POTASSIUM / SODIUM / TOTAL BILIRUBIN / TOTAL PROTEIN / URIC ACID: tissue Plasma
[1] = 0 mg/kg, 72 h, dose level Control, time 3 day
[2] = 0 mg/kg, 120 h, dose level Control, time 5 day
[3] = 30 mg/kg, 72 h, dose level Low, time 3 day

For `CCC(C)n1ncn(-c2ccc(N3CCN(c4ccc(OCC5COC(Cn6cncn6)(c6ccc(Cl)cc6Cl)O5)cc4)CC3)cc2)c1=O` (centres undefined) [ITRACONAZOLE], the “ABSOLUTE BASOPHIL” value [1] was 0 CELLS/uL, the “ABSOLUTE EOSINOPHIL” value [1] was 104.17 CELLS/uL and the “ABSOLUTE LYMPHOCYTE” value [1] was 14547 CELLS/uL. For the same compound, the “ABSOLUTE MONOCYTE” value [1] was 292 CELLS/uL, the “ABSOLUTE SEGMENTED NEUTROPHIL” value [1] was 1640.17 CELLS/uL and the BASOPHIL [1] was 0%. For the same compound, the EOSINOPHIL [1] was 0.67%, the “ERYTHROCYTE COUNT” value [1] was 5.35 x10E6/uL and the HEMATOCRIT [1] was 33.67%. The HEMOGLOBIN [1] was 13.38 G/DL, the “LEUKOCYTE COUNT” value [1] was 16.58 x10E3/uL and the LYMPHOCYTE [1] was 87.5%. The “MEAN CORPUSCULAR HEMOGLOBIN” value [1] was 25.05 pg, the “MEAN CORPUSCULAR HEMOGLOBIN CONCENTRATION” value [1] was 39.78 G/DL and the “MEAN CORPUSCULAR VOLUME” value [1] was 62.97 fL. The MONOCYTE [1] was 1.83%, the NEUTROPHIL [1] was 10% and the “NUCLEATED RED BLOOD CELLS” value [1] was 0 /100WBC. For the same compound, the “PLATELET COUNT” value [1] was 1274.5 x10E3/uL, the “ALANINE AMINOTRANSFERASE” value [1] was 76.83 u/L and the ALBUMIN [1] was 3.97 G/DL. The “ALKALINE PHOSPHATASE” value [1] was 347 u/L, the “ASPARTATE AMINOTRANSFERASE” value [1] was 97.17 u/L and the “BLOOD UREA NITROGEN” value [1] was 14.33 mg/dL. For the same compound, the “CARBON DIOXIDE” value [1] was 25.5 mmol/L, the CHLORIDE [1] was 100.33 MEQ/L and the CHOLESTEROL [1] was 68.67 mg/dL. The “CREATINE PHOSPHOKINASE” value [1] was 659.17 u/L, the CREATININE [1] was 0.32 mg/dL and the GLUCOSE [1] was 160.67 mg/dL. The “LACTATE DEHYDROGENASE” value [1] was 271.5 u/L, the LIPASE [1] was 11.67 u/L and the PHOSPHORUS [1] was 10.65 mg/dL. For the same compound, the POTASSIUM [1] was 5.95 MEQ/L, the SODIUM [1] was 139.65 MEQ/L and the “TOTAL BILIRUBIN” value [1] was 0.2 mg/dL. The “TOTAL PROTEIN” value [1] was 5.72 G/DL, the “URIC ACID” value [1] was 1.37 mg/dL and the “ABSOLUTE BASOPHIL” value [2] was 0 CELLS/uL. The “ABSOLUTE EOSINOPHIL” value [2] was 331.5 CELLS/uL, the “ABSOLUTE LYMPHOCYTE” value [2] was 15021.67 CELLS/uL and the “ABSOLUTE MONOCYTE” value [2] was 376.5 CELLS/uL. The “ABSOLUTE SEGMENTED NEUTROPHIL” value [2] was 3070.33 CELLS/uL, the BASOPHIL [2] was 0% and the EOSINOPHIL [2] was 1.83%. The “ERYTHROCYTE COUNT” value [2] was 5.24 x10E6/uL, the HEMATOCRIT [2] was 33.22% and the HEMOGLOBIN [2] was 13.2 G/DL. The “LEUKOCYTE COUNT” value [2] was 18.8 x10E3/uL, the LYMPHOCYTE [2] was 79.67% and the “MEAN CORPUSCULAR HEMOGLOBIN” value [2] was 25.17 pg. The “MEAN CORPUSCULAR HEMOGLOBIN CONCENTRATION” value [2] was 39.73 G/DL, the “MEAN CORPUSCULAR VOLUME” value [2] was 63.38 fL and the MONOCYTE [2] was 2%. For the same compound, the NEUTROPHIL [2] was 16.5%, the “NUCLEATED RED BLOOD CELLS” value [2] was 0 /100WBC and the “PLATELET COUNT” value [2] was 1142.67 x10E3/uL. The “ALANINE AMINOTRANSFERASE” value [2] was 52.5 u/L, the ALBUMIN [2] was 3.9 G/DL and the “ALKALINE PHOSPHATASE” value [2] was 284.5 u/L. For the same compound, the “ASPARTATE AMINOTRANSFERASE” value [2] was 81.33 u/L, the “BLOOD UREA NITROGEN” value [2] was 16 mg/dL and the “CARBON DIOXIDE” value [2] was 25.33 mmol/L. For the same compound, the CHLORIDE [2] was 99.5 MEQ/L, the CHOLESTEROL [2] was 74.83 mg/dL and the “CREATINE PHOSPHOKINASE” value [2] was 448.33 u/L. For the same compound, the CREATININE [2] was 0.37 mg/dL, the GLUCOSE [2] was 164.17 mg/dL and the “LACTATE DEHYDROGENASE” value [2] was 290.67 u/L. It also gave an LIPASE [2] of 6.83 u/L, a PHOSPHORUS [2] of 11.5 mg/dL and a POTASSIUM [2] of 6.28 MEQ/L. For the same compound, the SODIUM [2] was 139.5 MEQ/L, the “TOTAL BILIRUBIN” value [2] was 0.13 mg/dL and the “TOTAL PROTEIN” value [2] was 5.55 G/DL. For the same compound, the “URIC ACID” value [2] was 1.12 mg/dL, the “ABSOLUTE BASOPHIL” value [3] was 0 CELLS/uL and the “ABSOLUTE EOSINOPHIL” value [3] was 60 CELLS/uL. The “ABSOLUTE LYMPHOCYTE” value [3] was 9936.67 CELLS/uL, the “ABSOLUTE MONOCYTE” value [3] was 160.67 CELLS/uL and the “ABSOLUTE SEGMENTED NEUTROPHIL” value [3] was 876 CELLS/uL. For the same compound, the BASOPHIL [3] was 0%, the EOSINOPHIL [3] was 0.67% and the “ERYTHROCYTE COUNT” value [3] was 6.06 x10E6/uL. The HEMATOCRIT [3] was 37.97%, the HEMOGLOBIN [3] was 14.57 G/DL and the “LEUKOCYTE COUNT” value [3] was 11.03 x10E3/uL. The LYMPHOCYTE [3] was 89.67%, the “MEAN CORPUSCULAR HEMOGLOBIN” value [3] was 24 pg and the “MEAN CORPUSCULAR HEMOGLOBIN CONCENTRATION” value [3] was 38.4 G/DL. For the same compound, the “MEAN CORPUSCULAR VOLUME” value [3] was 62.6 fL, the MONOCYTE [3] was 1.33% and the NEUTROPHIL [3] was 8.33%. For the same compound, the “NUCLEATED RED BLOOD CELLS” value [3] was 0 /100WBC, the “PLATELET COUNT” value [3] was 1209.33 x10E3/uL and the “ALANINE AMINOTRANSFERASE” value [3] was 56 u/L. The ALBUMIN [3] was 4.23 G/DL, the “ALKALINE PHOSPHATASE” value [3] was 522.33 u/L and the “ASPARTATE AMINOTRANSFERASE” value [3] was 74.33 u/L. For the same compound, the “BLOOD UREA NITROGEN” value [3] was 11 mg/dL, the “CARBON DIOXIDE” value [3] was 22.67 mmol/L and the CHLORIDE [3] was 100.33 MEQ/L. The CHOLESTEROL [3] was 56 mg/dL, the “CREATINE PHOSPHOKINASE” value [3] was 240 u/L and the CREATININE [3] was 0.11 mg/dL. For the same compound, the GLUCOSE [3] was 184.33 mg/dL, the “LACTATE DEHYDROGENASE” value [3] was 106 u/L and the LIPASE [3] was 10 u/L. For the same compound, the PHOSPHORUS [3] was 12.87 mg/dL, the POTASSIUM [3] was 6.49 MEQ/L and the SODIUM [3] was 141.73 MEQ/L. For the same compound, the “TOTAL BILIRUBIN” value [3] was 0.17 mg/dL, the “TOTAL PROTEIN” value [3] was 6.4 G/DL and the “URIC ACID” value [3] was 1.97 mg/dL.

Reference: ChEMBL document CHEMBL3885881, “DrugMatrix”
